Data: patent US20260216347A1, “Substituted Imidazo-Based Compounds as Ligand Directed Degraders of IRAK3” (Celgene Corporation, priority 2022, published 2026)

Target: T1, IRAK3-ePL (Homo sapiens, UniProt Q9Y616)
T1 construct: expressed in transfected cells; host or cells: 293T CRBN OE/GSPT1 G575N KI cells, lentiviral transduction, puromycin selected
Experiment: IRAK3-ePL overexpressing degradation assay (InCELL Hunter luminescence, dose response)
Format: cell-based
Procedure, shortened: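 Lenti-X 293T CRBN/GSPT1 G575N cells stably expressing IRAK3-ePL (5,000/well) treated overnight at 37° C with 10-point 3-fold dilutions from 10 μM, 0.2% DMSO. InCELL Hunter luminescence, background subtracted using Ataluren wells and normalized to DMSO; EC50 from four-parameter logistic fit.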

Which “IRAK3 ePL degradation Ymin” value (lowest percentage of target protein remaining following compound treatment) does the source give for Cc1cc(-c2cnc(Nc3cnn(C4CCN(CCN5CCN(c6ccc(C7CCC(=O)NC7=O)cc6)CC5)CC4)c3)c3nccn23)c(F)cc1F (centres unmarked) [Compound 8, 3-(4-(4-(2-(4-(4-((5-(2,4-difluoro-5-methylphenyl)imidazo[1,2-a]pyrazin-8-yl)amino)-1H-pyrazol-1-yl)piperidin-1-yl)ethyl)piperazin-1-yl)phenyl)piperidine-2,6-dione] here?
Its value is 18%.

What about the DC50 (read-out: IRAK3 ePL degradation EC50) of the same compound?
Its DC50 is 0.5 nM.
